Source: PubChem BioAssay AID2060897 (Molecular Pharmacology Branch, DTP, NCI, 2025)

Test system: 966289-007-R4-J1-PDC complex spheroid viability
Assay: Anticancer human tumor 966289-007-R4-J1-PDC patient-derived pancreatic adenocarcinoma cell line growth inhibition [RAS]
Conditions: for IC50: curve of first compound; for viability, T/C: stronger effect = lower value
Summary of the method: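 Tumour cells grown as complex spheroids with HUVEC endothelial cells and mesenchymal stem cells, treated with RAS pathway inhibitor combinations. Each agent spans half-log steps from near clinical Cmax, or 10 microM where Cmax is unknown.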
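Further: spheroids exposed to agents for one week before readout.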
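Wherever viability, T/C is given: percent viability relative to DMSO vehicle control wells as 100%.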

## CC(C)n1nc(-c2ccc3oc(N)nc3c2)c2c(N)ncnc21 + CCn1c(-c2cccnc2C(C)OC)c2c3cc(ccc31)N1CCOC(CC(NC(=O)C(C(C)C)N(C)C(=O)C3(F)CCN(C(=O)C#CC(C)(C)N(C)C)CC3)C(=O)N3CCCC(N3)C(=O)OCC(C)(C)C2)C1
Second compound 0.000949 µM
  IC50: 24.8 nM
Second compound 0.003 µM
  IC50: 29.8 nM
Second compound 0.00949 µM
  IC50: 28.6 nM
Second compound 0.03 µM
  IC50: 31.7 nM
Second compound 0.0949 µM
  IC50: 29.8 nM
Second compound 0.3 µM
  IC50: 24.6 nM
Second compound 0.000949 µM, first compound 0.000316 µM
  viability, T/C: 101%
Second compound 0.000949 µM, first compound 0.001 µM
  viability, T/C: 88.1%
Second compound 0.000949 µM, first compound 0.00316 µM
  viability, T/C: 133%
Second compound 0.000949 µM, first compound 0.01 µM
  viability, T/C: 73.4%
Second compound 0.000949 µM, first compound 0.0316 µM
  viability, T/C: 45.9%
Second compound 0.000949 µM, first compound 0.1 µM
  viability, T/C: 14.3%
Second compound 0.003 µM, first compound 0.000316 µM
  viability, T/C: 82.1%
Second compound 0.003 µM, first compound 0.001 µM
  viability, T/C: 102%
Second compound 0.003 µM, first compound 0.00316 µM
  viability, T/C: 116%
Second compound 0.003 µM, first compound 0.01 µM
  viability, T/C: 75.9%
Second compound 0.003 µM, first compound 0.0316 µM
  viability, T/C: 50.8%
Second compound 0.003 µM, first compound 0.1 µM
  viability, T/C: 15.4%
Second compound 0.00949 µM, first compound 0.000316 µM
  viability, T/C: 67.1%
Second compound 0.00949 µM, first compound 0.001 µM
  viability, T/C: 111%
Second compound 0.00949 µM, first compound 0.00316 µM
  viability, T/C: 95.8%
Second compound 0.00949 µM, first compound 0.01 µM
  viability, T/C: 90.2%
Second compound 0.00949 µM, first compound 0.0316 µM
  viability, T/C: 46.1%
Second compound 0.00949 µM, first compound 0.1 µM
  viability, T/C: 20.3%
Second compound 0.03 µM, first compound 0.000316 µM
  viability, T/C: 56.9%
Second compound 0.03 µM, first compound 0.001 µM
  viability, T/C: 96.6%
Second compound 0.03 µM, first compound 0.00316 µM
  viability, T/C: 111%
Second compound 0.03 µM, first compound 0.01 µM
  viability, T/C: 91.8%
Second compound 0.03 µM, first compound 0.0316 µM
  viability, T/C: 50.1%
Second compound 0.03 µM, first compound 0.1 µM
  viability, T/C: 15%
Second compound 0.0949 µM, first compound 0.000316 µM
  viability, T/C: 58.4%
Second compound 0.0949 µM, first compound 0.001 µM
  viability, T/C: 96%
Second compound 0.0949 µM, first compound 0.00316 µM
  viability, T/C: 106%
Second compound 0.0949 µM, first compound 0.01 µM
  viability, T/C: 81.3%
Second compound 0.0949 µM, first compound 0.0316 µM
  viability, T/C: 48.4%
Second compound 0.0949 µM, first compound 0.1 µM
  viability, T/C: 18.2%
Second compound 0.3 µM, first compound 0.000316 µM
  viability, T/C: 115%
Second compound 0.3 µM, first compound 0.001 µM
  viability, T/C: 96.7%
Second compound 0.3 µM, first compound 0.00316 µM
  viability, T/C: 84%
Second compound 0.3 µM, first compound 0.01 µM
  viability, T/C: 89.7%
Second compound 0.3 µM, first compound 0.0316 µM
  viability, T/C: 38.6%
Second compound 0.3 µM, first compound 0.1 µM
  viability, T/C: 16.4%
